Values joined by “and” are separate entries in the source; they are usually repeats but may differ in a detail not shown here. Identical values can stand only once.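 Values below derive from 48-hour exposures of cells grown in 96-well plates, with endpoints linearly interpolated between the two concentrations bracketing the appropriate inhibition level. GI50 is the concentration that inhibits growth by half. The concentration for full growth arrest is given as TGI.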
What was measured:
Experiment in all cases: NCI anticancer screen, dose series, 48 h
[1] = system: HL-60(TB) leukemia
[2] = system: RXF 393 renal
[3] = system: LOX IMVI melanoma
[4] = system: HOP-62 NSCLC
[5] = system: SK-MEL-2 melanoma
[6] = system: HCT-116 colon
[7] = system: UACC-62 melanoma
[8] = system: NCI/ADR-RES ovarian
[9] = system: SW-620 colon
[10] = system: SF-295 CNS

| SMILES | GI50 [1] | TGI [1] | GI50 [2] | TGI [2] | GI50 [3] | GI50 [4] | TGI [4] | GI50 [5] | TGI [5] | GI50 [6] | TGI [6] | GI50 [7] | TGI [7] | GI50 [8] | TGI [8] | GI50 [9] | TGI [9] | GI50 [10] | TGI [10] | TGI [3] |
| --- | --- | --- | --- | --- | --- | --- | --- | --- | --- | --- | --- | --- | --- | --- | --- | --- | --- | --- | --- | --- |
| O=C(Nc1ccc([N+](=O)[O-])cc1Cl)c1cc(Cl)ccc1O | 0.115 µM | 0.244 µM | 0.135 µM and 0.268 µM | 0.434 µM and 2.71 µM | 0.162 µM and 0.244 µM | 0.149 µM and 0.262 µM | 0.469 µM | 0.111 µM and 0.167 µM | 0.268 µM and 0.443 µM | 0.121 µM and 0.172 µM | 0.397 µM and 0.483 µM | 0.0773 µM and 0.0678 µM | 0.568 µM and 0.392 µM | 0.137 µM and 0.231 µM | 0.536 µM and 1.35 µM | 0.163 µM and 0.333 µM | 15.5 µM and 11.9 µM | 0.112 µM and 0.207 µM | 0.308 µM and 0.609 µM | – |
| O=C(COc1ccc(Cl)cc1Cl)NNc1ccc([N+](=O)[O-])cc1 | > 100 µM | > 100 µM | 17 µM | 39.9 µM | > 100 µM | 19.7 µM | 38.6 µM | 22 µM | 39.7 µM | 65.3 µM | > 100 µM | 27.7 µM | > 100 µM | 84 µM | > 100 µM | > 100 µM | > 100 µM | 19.7 µM | 40.1 µM | > 100 µM |
| O=c1[nH]c(C2CCCCC2)nc2ccc(Cl)cc12 | – | – | – | > 100 µM | – | – | – | – | > 100 µM | – | > 100 µM | – | > 100 µM | – | – | – | > 100 µM | – | > 100 µM | – |
| Cc1c2cc[n+](C)cc2c(C)c2c1[nH]c1ccc(OC(C)(C)C)cc12 | – | > 100 µM | – | > 100 µM | – | – | > 100 µM | – | > 100 µM | – | > 100 µM | – | > 100 µM | – | – | – | > 100 µM | – | > 100 µM | > 100 µM |
| Nc1nc(N)c2c(n1)NC(c1ccc(Cl)cc1)C1CCc3ccccc3C1=N2 (centres undefined) | – | – | 4.68 µM | 19.1 µM | 3.53 µM | 11.5 µM | 23.7 µM | 10.6 µM | 24.6 µM | 3.72 µM | 14.9 µM | 3.66 µM | 18.3 µM | 5.53 µM | 18.2 µM | 8.23 µM | 22.6 µM | 3.37 µM | 14.7 µM | 16.2 µM |
| Nc1ncnc2c1ncn2Cc1ccc(CCl)cc1 | 54.7 µM | > 100 µM | 20.3 µM | 62.2 µM | 23.5 µM | 34.5 µM | > 100 µM | 32.6 µM | 97.5 µM | 36.2 µM | > 100 µM | 19.6 µM | 34.6 µM | 18.7 µM | 44.5 µM | 12.8 µM | 30.2 µM | 15.7 µM | 34.4 µM | 51.7 µM |
| CCCCCCCN(CCCCCCC)C(=N)c1ccc(OC)c2ccccc12 | – | – | 1.3 µM | 3.01 µM | – | 1.3 µM | 2.79 µM | 1.81 µM | 3.4 µM | – | – | 1.34 µM | 2.77 µM | 1.46 µM | 3.05 µM | 0.825 µM | 2.24 µM | 1.24 µM | 2.72 µM | – |
| COc1ccc(C2[C@@H](Cl)C(=O)N2c2ccc(OC)cc2)cc1 (some centres undefined) | – | > 100 µM | – | > 100 µM | – | – | – | – | > 100 µM | – | > 100 µM | – | > 100 µM | – | – | – | > 100 µM | – | > 100 µM | – |
| CS(=O)(=O)Nc1cc(-c2ccc3ncnc(Nc4ccc(OCc5ccccn5)c(Cl)c4)c3c2)cnc1Cl | 0.23 µM | 2.72 µM | – | – | 0.268 µM | 0.646 µM | > 100 µM | 0.184 µM | 0.739 µM | 0.648 µM | > 100 µM | 0.264 µM | 1.58 µM | 7.07 µM | > 100 µM | 0.448 µM | 10.5 µM | 0.526 µM | 4.75 µM | 1.92 µM |
| COc1cccc(/C=C/C(=O)c2cc3c(N)c(C(=O)Nc4ccccc4)sc3nc2C)c1 | 1.02 µM | 2.72 µM | 0.837 µM | 1.71 µM | 0.887 µM | 1.09 µM | 2.44 µM | 1.75 µM | 8.63 µM | 0.838 µM | 1.58 µM | 0.943 µM | 2.19 µM | – | – | 1.12 µM | 3.09 µM | 6.27 µM | > 50 µM | 1.64 µM |
| COC(=O)/C(=C1\OC(=O)C(c2ccc(Cl)cc2)=C1O)c1ccc(Cl)cc1 | – | 32.9 µM | – | 63 µM | – | – | 41.4 µM | – | – | – | 50.4 µM | – | 56.9 µM | – | – | – | > 100 µM | – | 43 µM | 64.4 µM |
| CC1=NN(c2ccccc2)C(=O)C1N=Nc1ccc(Br)cc1C (centres undefined) | – | > 100 µM | – | > 100 µM | – | – | > 100 µM | – | > 100 µM | – | > 100 µM | – | > 100 µM | – | – | – | > 100 µM | – | > 100 µM | – |
| COC(=O)C1(N2CCOCC2)CCC([C@@H](c2ccccc2)C(C)[N+](=O)[O-])C1 (some centres undefined) | – | > 100 µM | – | – | – | – | > 100 µM | – | > 100 µM | – | – | – | > 100 µM | – | > 100 µM | – | > 100 µM | – | > 100 µM | > 100 µM |
| OCC1OC(n2cnc3cc(Cl)c(Cl)cc32)C(O)C1O (centres undefined) | 20 µM | > 100 µM | – | – | 12.1 µM | 9.13 µM | 35.4 µM | 14.3 µM | 35.9 µM | 18 µM | 44.2 µM | 12.2 µM | 26.6 µM | 18.8 µM | 56.6 µM | 30.3 µM | > 76.7 µM | 24.6 µM | 85.2 µM | 29 µM |
| Cc1ccccc1C1SCc2nc3ccccc3n21 (centres undefined) | – | > 100 µM | – | > 100 µM | – | – | – | – | > 100 µM | – | > 100 µM | – | > 100 µM | – | – | – | – | – | > 100 µM | – |
| OCC1OC(NO)C(O)C(O)C1O (centres undefined) | – | > 100 µM | – | > 100 µM | – | – | > 100 µM | – | – | – | > 100 µM | – | > 100 µM | – | – | – | > 100 µM | – | > 100 µM | > 100 µM |
| CC1O[C@@H]2CCCCC(=O)[C@]2(C)[C@H]1C (some centres undefined) | – | > 100 µM | – | > 100 µM | – | – | > 100 µM | – | > 100 µM | – | > 100 µM | – | > 100 µM | – | – | – | > 100 µM | – | > 100 µM | > 100 µM |
